Data taken from US12521425B2, “Method of liver cancer treatment with safranal-based formulations” (priority 2019, dated 2026).

System: DEN-induced hepatic neoplasia
Test: Liver gross and histopathological examination in DEN-induced HCC model
Format: in vivo, male Wistar rats
Conditions: HCC rats
Experimental: A modified version of the protocol described by DePeralta et al. (2016) and Schiffer et al. (2005) was used here to establish the hepatocarcinogenesis model.
On the first 15 weeks, the control PBS group was treated with 1×PBS, whereas the experimental groups were given an intraperitoneal injection (IP) of 50 mg/kg of diethylnitrosoamine (DEN, Sigma Aldrich), a widely used chemical for inducing cancer, once a week. DEN was diluted with 1×PBS. Following a one-week break (week 16), the next three weeks (weeks 17 to 19) of treatment commenced. All drugs were administrated by oral gavage. All doses were chosen according to literature (Alsaied et al., 2014; Karafakioglu et al., 2017). For the HCC+sorafenib group, the drug (Carbosynth Limited) was administered at a dose of 10 mg/kg, five days a week. For the HCC+safranal group, the drug (Sigma Aldrich) was administered at a dose of 200 mg/kg, five days a week. For the HCC+safranal+sorafenib group, the drugs were administered at a dose of 200 mg/kg safranal+10 mg/kg sorafenib, five days a week. Both safranal and sorafenib were diluted with 1×PBS and drops of Tween 80. […] After 24-hours from last treatment, the rats were euthanized by mild diethyl ether and dissected in equal conditions. Blood and whole liver were collected.
Liver sample specimens were fixed in 10% neutral buffered formalin, dehydrated in a series of graded ethanol, embedded in paraffin blocks, and cut into 3 μm-thick sections. To detect histopathological changes, sections were stained with hematoxylin and eosin (H&E), and reticulin stain kit according to the protocol provided (Abcam), then examined under light microscope (Ozkececi et al., 2016). Blinded examination of tissue samples was carried out by a pathologist from Tawam Hospital—United Arab Emirates.

CC1=C(C=O)C(C)(C)CC=C1 [safranal]
area of neoplastic foci (histology) (H&E, versus HCC): restoration of the normal architecture of the liver
number of liver nodules / lesions (comparing to HCC animals): reduced lesions
reticular fibers (reticulin staining) (comparing to HCC group): reduced reticular fibers' breakage and restored their morphology
